From patent publication US9783536B2, “Nitrogen-containing heterocyclic compound or salt thereof” (FUJIFILM Corporation, priority 2013, dated 2017)
Where two headings read alike, the source gives them in different places.

Legend:
[1] = biological target: T1, human PI3Kα protein (Homo sapiens, UniProt P42336); assay: PI3Kα enzyme assay (ADP-Glo); format: biochemical; conditions: read-out: PI3Kα enzyme inhibitory activity
T1 construct: purchased Carna Biosciences, Inc; host or cells: baculovirus expression system
T1 sequence (P42336 whole entry): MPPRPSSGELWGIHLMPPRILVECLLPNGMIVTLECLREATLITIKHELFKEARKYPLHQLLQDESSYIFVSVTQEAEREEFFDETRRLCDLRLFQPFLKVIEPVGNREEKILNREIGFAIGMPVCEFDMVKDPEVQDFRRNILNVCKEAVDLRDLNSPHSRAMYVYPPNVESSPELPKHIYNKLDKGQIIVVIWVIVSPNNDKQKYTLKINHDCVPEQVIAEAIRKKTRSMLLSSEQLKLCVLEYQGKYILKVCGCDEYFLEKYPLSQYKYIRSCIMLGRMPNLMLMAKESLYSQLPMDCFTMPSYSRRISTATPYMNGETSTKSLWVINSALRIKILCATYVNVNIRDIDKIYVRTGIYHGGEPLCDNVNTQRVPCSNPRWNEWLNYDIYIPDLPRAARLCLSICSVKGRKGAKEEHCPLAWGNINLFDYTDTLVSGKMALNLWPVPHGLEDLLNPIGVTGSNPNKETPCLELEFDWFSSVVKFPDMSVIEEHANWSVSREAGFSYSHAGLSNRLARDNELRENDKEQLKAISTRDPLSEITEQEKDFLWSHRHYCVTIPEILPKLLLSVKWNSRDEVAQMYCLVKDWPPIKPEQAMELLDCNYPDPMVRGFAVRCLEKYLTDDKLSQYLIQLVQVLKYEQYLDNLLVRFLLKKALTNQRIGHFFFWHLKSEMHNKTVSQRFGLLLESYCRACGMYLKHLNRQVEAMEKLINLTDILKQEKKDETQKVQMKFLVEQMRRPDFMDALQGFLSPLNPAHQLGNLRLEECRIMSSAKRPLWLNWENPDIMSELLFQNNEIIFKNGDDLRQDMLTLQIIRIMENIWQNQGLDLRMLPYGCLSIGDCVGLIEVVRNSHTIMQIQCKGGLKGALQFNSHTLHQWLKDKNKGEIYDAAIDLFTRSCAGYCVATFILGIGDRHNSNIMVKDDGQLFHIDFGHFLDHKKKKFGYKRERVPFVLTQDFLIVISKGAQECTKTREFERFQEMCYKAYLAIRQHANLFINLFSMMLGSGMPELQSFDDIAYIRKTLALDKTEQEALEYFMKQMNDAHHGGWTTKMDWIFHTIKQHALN
T1 sequence (P27986 whole entry partner): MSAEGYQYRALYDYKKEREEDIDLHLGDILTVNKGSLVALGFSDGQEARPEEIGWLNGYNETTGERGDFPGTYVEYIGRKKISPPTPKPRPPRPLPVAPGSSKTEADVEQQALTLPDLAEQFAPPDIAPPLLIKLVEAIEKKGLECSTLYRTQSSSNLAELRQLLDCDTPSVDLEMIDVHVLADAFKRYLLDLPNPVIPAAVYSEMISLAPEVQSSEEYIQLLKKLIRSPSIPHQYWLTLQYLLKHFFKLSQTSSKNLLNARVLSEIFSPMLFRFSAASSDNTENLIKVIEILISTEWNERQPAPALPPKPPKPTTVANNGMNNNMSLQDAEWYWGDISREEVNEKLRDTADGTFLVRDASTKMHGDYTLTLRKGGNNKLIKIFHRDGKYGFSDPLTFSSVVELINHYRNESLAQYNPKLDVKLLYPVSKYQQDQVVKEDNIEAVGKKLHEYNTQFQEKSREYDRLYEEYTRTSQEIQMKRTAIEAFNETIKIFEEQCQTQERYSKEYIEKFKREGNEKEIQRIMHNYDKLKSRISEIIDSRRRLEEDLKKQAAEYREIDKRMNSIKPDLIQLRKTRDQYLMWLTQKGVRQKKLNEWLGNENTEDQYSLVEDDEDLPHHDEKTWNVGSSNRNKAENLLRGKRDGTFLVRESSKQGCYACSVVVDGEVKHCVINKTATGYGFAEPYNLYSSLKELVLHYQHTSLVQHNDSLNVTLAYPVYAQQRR
Outline: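 Biotinylated human PI3Kα (baculovirus-expressed, 4.5 nmol/L) pre-incubated 15 min with compound in Tris-HCl pH 7.5, MgCl2, BSA; reaction 60 min at 25° C with 50 μmol/L PIP2 and 100 μmol/L ATP final. ADP quantified by ADP-Glo luminescence; IC50 calculated.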

[2] = biological target: T2, GST fusion human ERK2 protein (Homo sapiens, UniProt P28482); assay: ERK2 enzyme assay (2); format: biochemical; conditions: ERK2 enzyme assay (2); read-out: ERK2 enzyme inhibitory activity (2)
T2 construct: purchased Carna Biosciences, Inc; host or cells: E. coli expression system
T2 sequence (P28482 whole entry, the tested form may be a part): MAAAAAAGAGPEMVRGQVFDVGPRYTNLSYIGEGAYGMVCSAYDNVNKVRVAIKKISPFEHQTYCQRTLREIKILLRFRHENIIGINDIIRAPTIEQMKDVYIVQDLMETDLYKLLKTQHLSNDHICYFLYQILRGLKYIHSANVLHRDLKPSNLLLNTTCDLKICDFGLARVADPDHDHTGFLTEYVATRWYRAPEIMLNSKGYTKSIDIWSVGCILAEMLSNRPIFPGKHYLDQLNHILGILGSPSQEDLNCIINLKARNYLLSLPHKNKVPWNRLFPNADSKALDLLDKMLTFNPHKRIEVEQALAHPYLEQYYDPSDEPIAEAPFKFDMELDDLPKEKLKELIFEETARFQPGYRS
Outline: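 IC50 values come from mobility-shift measurement of phosphorylated versus unphosphorylated 5-FAM peptide substrate after EDTA quench. Beforehand, compound and 1.25 nmol/L E. coli-expressed GST–human ERK2 stood 15 min at room temperature (pH 7.5), then 1 mmol/L ATP and 4.25 μmol/L substrate (final) were added for 120 min at 25 °C.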

[3] = tested on: CHO-K1 cells; assay: CHO cell toxicity test; format: cell-based, Chinese hamster; conditions: Cricetulus griseus, read-out: IC50 value (concentration at which the number of viable cells was suppressed to 50% or less)
Experimental: In a CHO cell toxicity test, the following was used.
Cell: CHO-K1 cells (derived from Chinese hamster ovary) Test medium: F-12 MEDIUM+FCS (manufactured by Biowest) having a final concentration of 2%
Detection reagent: CELLTITER-GLO™ LUMINESCENT CELL VIABILITY ASSAY (trade name, manufactured by PROMEGA Corporation)
The CHO-K1 cells were seeded in a 96-well microplate for culture at 5,000 cells/well, and cultured in a CO2 incubator (37° C.) for 24 hours. An evaluation compound (final concentration: from 25.00 μmol/L to 0.20 μmol/L, common ratio: […]) was added thereto, followed by culturing for 24 hours, and the number of viable cells was calculated from emission intensity by CELLTITER-GLO™ (trade name, manufactured by PROMEGA Corporation). In the measurement of the emission intensity, VARIOSKAN FLASH (manufactured by Thermo Fisher Scientific Inc.) was used.
Inhibition ratio (%)=100−(A/B)×100
A: Emission intensity in the presence of a test compound
B: Emission intensity in the absence of a test compound

[4] = CHO-K1 cells, 24 hours culture with compound, CellTiter-Glo

IC50 [1]	IC50 [2]	SMILES	IC50 [3, 4]	IC50 ([3]; CHO-K1, 24 h)
< 1000 nM	< 1000 nM	CC(C)c1cnnc(Nc2ccc3ncc(-c4cnn(C[C@@H]5CCC(=O)N5C)c4)cc3n2)c1 [Example 0557, (S)-5-((4-(6-((5-isopropylpyridazin-3-yl)amino)-1,5-naphthyridin-3-yl)-1H-pyrazol-1-yl)methyl)-1-methylpyrrolidin-2-one]	≥ 25000 nM	–
< 1000 nM	< 1000 nM	CC(C)c1cnnc(Nc2ccc3ncc(-c4cnn(CC5CN(S(C)(=O)=O)C5)c4)cc3n2)c1 [Example 0572, N-(5-isopropylpyridazin-3-yl)-7-(1-((1-(methylsulfonyl)azetidin-3-yl)methyl)-1H-pyrazol-4-yl)-1,5-naphthyridine-2-amine]	≥ 25000 nM	–
< 1000 nM	< 1000 nM	Cn1cc(-c2cnc3ccc(Nc4cc(C5CC5)cnn4)nc3c2)c(-c2cccnc2)n1 [Example 0573, N-(5-cyclopropylpyridazin-3-yl)-7-(1-methyl-3-(pyridin-3-yl)-1H-pyrazol-4-yl)-1,5-naphthyridine-2-amine]	≥ 25000 nM	–
< 1000 nM	< 1000 nM	CCn1cc(-c2cnc3ccc(Nc4cc(C(C)C)cnn4)nc3c2)c(-c2cccnc2)n1 [Example 0576]	≥ 25000 nM	–
< 1000 nM	< 1000 nM	CC(C)c1cnnc(Nc2ccc3ncc(-c4cnn(CCCN5CC6(COC6)C5)c4)cc3n2)c1 [Example 0613]	≥ 25000 nM	–
< 1000 nM	< 1000 nM	CC(C)c1cnnc(Nc2ccc3ncc(-c4cnn(CCCN5C[C@@H](C)O[C@H](C)C5)c4)cc3n2)c1 [Example 0614]	≥ 25000 nM	–
< 1000 nM	< 1000 nM	CC(C)c1cnnc(Nc2ccc3ncc(-c4cnn(CCCN5C[C@@H](C)O[C@@H](C)C5)c4)cc3n2)c1 [Example 0615]	≥ 25000 nM	–
< 1000 nM	< 1000 nM	CC(C)c1cnnc(Nc2ccc3ncc(-c4cn(C)nc4C(F)F)cc3n2)c1 [Example 0635]	≥ 25000 nM	–
< 1000 nM	< 1000 nM	CC(C)c1cnnc(Nc2ccc3ncc(-c4cnn(CCCN5CCO[C@@H](C)C5)c4)cc3n2)c1 [Example 0644]	≥ 25000 nM	–
< 1000 nM	< 1000 nM	CC(C)c1cnnc(Nc2ccc3ncc(-c4cnn(CCCN5CCO[C@H](C)C5)c4)cc3n2)c1 [Example 0645]	≥ 25000 nM	–
< 1000 nM	< 1000 nM	CC(C)c1cnnc(Nc2ccc3ncc(-c4cnn(CCCN5CCOC[C@@H]5C)c4)cc3n2)c1 [Example 0650]	≥ 25000 nM	–
< 1000 nM	< 1000 nM	CC(C)c1cnnc(Nc2ccc3ncc(-c4cnn(CCCN5CCOCC5(C)C)c4)cc3n2)c1 [Example 0657]	≥ 25000 nM	–
< 1000 nM	< 1000 nM	CC(C)c1cnnc(Nc2ccc3ncc(-c4cnn(CCCN5CCCOCC5)c4)cc3n2)c1 [Example 0665]	≥ 25000 nM	–
< 1000 nM	< 1000 nM	CC(=O)NC1CN(CCCn2cc(-c3cnc4ccc(Nc5cc(C(C)C)cnn5)nc4c3)cn2)C1 [Example 0682, N-(1-(3-(4-(6-((5-isopropylpyridazin-3-yl)amino)-1,5-naphthyridin-3-yl)-1H-pyrazol-1-yl)propyl)azetidin-3-yl)acetamide]	≥ 25000 nM	–
< 1000 nM	< 1000 nM	CC(C)c1cnnc(Nc2ccc3ncc(-c4cnn(CCCN5CC(C#N)C5)c4)cc3n2)c1 [Example 0686]	≥ 25000 nM	–
< 1000 nM	< 1000 nM	CNC(=O)C1CN(CCCn2cc(-c3cnc4ccc(Nc5cc(C(C)C)cnn5)nc4c3)cn2)C1 [Example 0687, 1-(3-(4-(6-((5-Isopropylpyridazin-3-yl)amino)-1,5-naphthyridin-3-yl)-1H-pyrazol-1-yl)propyl)-N-methylazetidine-3-carboxamide]	≥ 25000 nM	–
< 1000 nM	< 1000 nM	COCC1COCCN1CCCn1cc(-c2cnc3ccc(Nc4cc(C(C)C)cnn4)nc3c2)cn1 (stereo not drawn) [Example 0691]	≥ 25000 nM	–
< 1000 nM	< 1000 nM	CC(C)c1cnnc(Nc2ccc3ncc(-c4cnn(CCCN5CC(N)C5)c4)cc3n2)c1 [Example 0695, 7-(1-(3-(3-aminoazetidin-1-yl)propyl)-1H-pyrazol-4-yl)-N-(5-isopropylpyridazin-3-yl)-1,5-naphthyridine-2-amine]	≥ 25000 nM	–
< 1000 nM	< 1000 nM	CC(C)c1cnnc(Nc2ccc3ncc(-c4cnn(CCCN5CC(NS(C)(=O)=O)C5)c4)cc3n2)c1 [Example 0697]	≥ 25000 nM	–

Second part, the compound before the results:

SMILES	IC50 [1]	IC50 [2]	IC50 [3, 4]	IC50 ([3]; CHO-K1, 24 h)
CC(C)c1cnnc(Nc2ccc3ncc(-c4cn(C)nc4C4CC4)cc3n2)c1 [Example 0567]	< 1000 nM	< 1000 nM	≥ 25000 nM	–
CC(C)c1cnnc(Nc2ccc3ncc(-c4cn(C)nc4-c4cncs4)cc3n2)c1 [Example 0583]	< 1000 nM	< 1000 nM	–	≥ 25000 nM
CC(C)c1cnnc(Nc2ccc3ncc(-c4cn(C)nc4CF)cc3n2)c1 [Example 0626, 7-(3-(Fluoromethyl)-1-methyl-1H-pyrazol-4-yl)-N-(5-isopropylpyridazin-3-yl)-1,5-naphthyridine-2-amine]	< 1000 nM	< 1000 nM	≥ 25000 nM	–
CC(C)c1cnnc(Nc2ccc3ncc(-c4cnn(CCCN5CC(O)C5)c4)cc3n2)c1 [Example 0629]	< 1000 nM	< 1000 nM	≥ 25000 nM	–
COC1CN(CCCn2cc(-c3cnc4ccc(Nc5cc(C(C)C)cnn5)nc4c3)cn2)C1 [Example 0630]	< 1000 nM	< 1000 nM	≥ 25000 nM	–
Cn1cc(-c2cnc3ccc(Nc4cc(C5CCCC5)cnn4)nc3c2)c(CF)n1 [Example 0631, N-(5-cyclopentylpyridazin-3-yl)-7-(3-(fluoromethyl)-1-methyl-1H-pyrazol-4-yl)-1,5-naphthyridine-2-amine]	< 1000 nM	< 1000 nM	≥ 25000 nM	–
CC(C)c1cnnc(Nc2ccc3ncc(-c4cnn(CCCN5CC6CC(C5)O6)c4)cc3n2)c1 [Example 0637, 7-(1-(3-(6-Oxa-3-azabicyclo[3.1.1]heptan-3-yl)propyl)-1H-pyrazol-4-yl)-N-(5-isopropylpyridazin-3-yl)-1,5-naphthyridine-2-amine]	< 1000 nM	< 1000 nM	≥ 25000 nM	–
CC(C)c1cnnc(Nc2ccc3ncc(-c4cnn(CCCN5CCOC[C@H]5C)c4)cc3n2)c1 [Example 0649]	< 1000 nM	< 1000 nM	≥ 25000 nM	–
CC(C)c1cnnc(Nc2ccc3ncc(-c4cnn(CCCN5C6CCC5COC6)c4)cc3n2)c1 [Example 0651]	< 1000 nM	< 1000 nM	≥ 25000 nM	–
CC(C)c1cnnc(Nc2ccc3ncc(-c4cnn(CCCN5CC6CCC(C5)O6)c4)cc3n2)c1 [Example 0653, 7-(1-(3-(8-Oxa-3-azabicyclo[3.2.1]octan-3-yl)propyl)-1H-pyrazol-4-yl)-N-(5-isopropylpyridazin-3-yl)-1,5-naphthyridine-2-amine]	< 1000 nM	< 1000 nM	≥ 25000 nM	–
COCCN(C)CCCn1cc(-c2cnc3ccc(Nc4cc(C(C)C)cnn4)nc3c2)cn1 [Example 0659]	< 1000 nM	< 1000 nM	≥ 25000 nM	–
CC(C)c1cnnc(Nc2ccc3ncc(-c4cnn(CCCN5CCOC(CO)C5)c4)cc3n2)c1 (stereo not drawn) [Example 0678]	< 1000 nM	< 1000 nM	≥ 25000 nM	–
COCC1CN(CCCn2cc(-c3cnc4ccc(Nc5cc(C(C)C)cnn5)nc4c3)cn2)CCO1 (stereo not drawn) [Example 0679]	< 1000 nM	< 1000 nM	≥ 25000 nM	–
CC(C)c1cnnc(Nc2ccc3ncc(-c4cnn(CCCN5CCOCC5CO)c4)cc3n2)c1 (stereo not drawn) [Example 0685]	< 1000 nM	< 1000 nM	≥ 25000 nM	–
CC(C)c1cnnc(Nc2ccc3ncc(-c4cnn(CCCN5CC(C(=O)N(C)C)C5)c4)cc3n2)c1 [Example 0688]	< 1000 nM	< 1000 nM	≥ 25000 nM	–
CC(C)c1cnnc(Nc2ccc3ncc(-c4cnn(CCCN5CC(F)C5)c4)cc3n2)c1 [Example 0694, 7-(1-(3-(3-Fluoroazetidin-1-yl)propyl)-1H-pyrazol-4-yl)-N-(5-isopropylpyridazin-3-yl)-1,5-naphthyridine-2-amine]	< 1000 nM	< 1000 nM	≥ 25000 nM	–
